Laboratory results taken from publication PMC11672551, “Cyclic Ruthenium-Peptide Prodrugs Penetrate the Blood–Brain Barrier and Attack Glioblastoma upon Light Activation in Orthotopic Zebrafish Tumor Models” (ACS Central Science, 2024).
pEC50: −log10 of the molar value. Like-named read-outs stand apart in the source and are kept apart here.

How the values were obtained:
U87MG cells [1] = test: Intracellular ROS generation, CellROX Deep Red, flow cytometry; type: cell-based, human; details: 15 μM, 24 h, green light 515 nm, 13.1 J cm–2, normoxia, n = 2
Method: Figure 3 Light activation mechanism in cells treated with Ru-peptide conjugates. (a) Emission intensity of cells treated with Ru-p(HH), Ru-p(MH), or Ru-p(MM) (15 μM, 24 h) and irradiated with green light (520 nm, 13.1 J cm^–2) for different times: 0–1200 s, as determined by flow cytometry using a PC5.5 filter (ex/em = 488/650 ± 50 nm). (b) Intracellular ROS generation assay in normoxic (N) and hypoxic (H) U87MG cells according to FACS analysis using nonselective ROS probe CellROX Deep Red Reagent, after treatment with Ru-p(HH), Ru-p(MH), Ru-p(MM), cisplatin, Rose Bengal, or [Ru(Ph2phen)2Cl2] (labeled as Ru-Cl2) (15 μM, 24 h), in the dark and after light irradiation (515 nm, 13.1 J cm^–2). tBHP (250 μM, 1 h) was used as a positive control for ROS generation. Error bars: SEM, n = 2. (c) Slopes of the UV–vis absorption of AMDA (for ^1O2, blue bars) or emission intensity of DHE (for O2^•–, red bars) vs irradiation time (see Figures S26–S28) after being incubated with Ru-p(HH), Ru-p(MH), Ru-p(MM), Ru-Cl2, or Rose Bengal (20 μM) and irradiated with green light in Opti-MEM solution. (d) Percentage of alive (−/−), early apoptotic (−/+), late apoptotic (+/+) and necrotic (+/−) U87MG cells costained with Apopxin Deep Red Indicator and Nuclear Green DCS1 as quantified by flow cytometry, after treatment with Ru-p(HH), Ru-p(MH), Ru-p(MM), cisplatin or Rose Bengal in the dark (D) and after light irradiation (L, DLI = 24 h, 515 nm, 13.1 J cm^–2); drug concentration: 20 μM, DLI = 24 h).
Second, CellROX Deep Red, a nonspecific molecular probe for ROS formation, was used to quantify the photodynamic behaviors by each of the three complexes in U87MG cells,.[22] […]
The generation of ROS (reactive oxygen species) in U87MG cells was measured using a ROS deep red fluorescence indicator (Abcam, ab186029). […] The levels of intracellular ROS were then determined using a CytoFLEX flow cytometer using the APC-A (638 nm excitation, 660/10 nm emission) channel. […]

[2] = reference value; cited from earlier work
Text: Table 1 Photochemical Data for Ru-Peptide Conjugates | column: complex

[3] = not given; remark: listed apart in the source
[4] = not given; remark: listed apart in the source
U87MG cells [5] = test: 2D cytotoxicity assay, SRB end point, dark vs green light; type: cell-based, human; details: normoxia (21% O2); for pEC50: SRB at 96 h
Method: To test the in vitro phototoxicity of the three complexes toward 2D monolayer U87MG cells, a cell viability assay was undertaken as follows: the cells were seeded at t = 0, treated at t = 24 h, irradiated with green light (520 nm, 13.1 J cm^–2) at t = 48 h without refreshing the medium (drug-to-light interval = 24 h), further incubated in the dark for 48 h, and counted at t = 96 h with a sulforhodamine B (SRB) cell quantification end point assay.[45] Half-maximal effective concentrations (EC50 in μM), compared to untreated control, and photoindex (PI) values, defined as EC50,dark/ EC50,light, were calculated to characterize the toxicity and light activation of each Ru-peptide conjugate. […] However, a much stronger discrepancy appeared in the 2D toxicity data in hypoxic conditions (Table 2, Figure S22b). The phototherapeutic properties of Ru-p(HH) in the green light group were the poorest, leading to a PI of only 1.3. […] Ru-p(MH) stood somewhere between these values with a PI of 1.9 under hypoxia. […] The loss of activity of Ru-p(HH) under hypoxia is consistent with the hypothesis of a PDT pathway, while Ru-p(MM) keeping appreciable phototoxicity under hypoxia better fits the hypothesis of a PACT cell-killing mechanism.
U87MG cells (6000) were seeded in 96-well plates (Sarstedt, 83.3924), and each well contained 100 μL of Opti-MEM (Gibco complete medium 11058-021, supplemented with 2.5% v/v fetal calf serum (FCS), 0.2% v/v penicillin/streptomycin (P/S), and 1% v/v glutamine). They were then placed either in a normoxic (21% O2) or hypoxic (1.0% O2) incubator; 24 h later, different concentrations of Ru-p(HH), Ru-p(MH), or Ru-p(MM) dissolved in Opti-MEM (100 μL) were added to the wells in triplicate. For each complex, one dark and one light plate were involved. Each plate was further incubated in the dark for 24 h (DLI). After that, one plate was irradiated with green light (520 nm) for 20 min at 37 °C for normoxia (dose = 13.1 J cm^–2) or 30 min for hypoxia (dose = 13.0 J cm^–2), while the other plate was kept in the dark. The cells were further incubated for another 2 days in normoxic or hypoxic conditions, respectively. Finally, 100 μL of cold trichloroacetic acid (10% w/v) was added to each well to fix the cells, and all plates were then transferred to a 4 °C refrigerator for 48 h before an SRB cell quantification end point assay was performed.[45] All experiments were conducted in biologically independent triplicate.
Hypoxic cell models in vitro: all cells were incubated and passaged in a dark hypoxic incubator (1% O2) for at least 2 weeks before all hypoxia studies. Adding chemicals to the cells had to be performed in air; however, the cell-growing medium was kept in the hypoxia incubator for at least 2 days before the addition to hypoxic cells, and all hypoxic light irradiations were performed inside the hypoxic incubator set at 1.0% O2.

In the case of `O=C([O-])c1c(Cl)c(Cl)c(Cl)c(Cl)c1-c1c2cc(I)c(=O)c(I)c-2oc2c(I)c([O-])c(I)cc12.[Na+].[Na+]` [Rose Bengal], the “intracellular ROS production, normoxia” value (U87MG cells [1]) was “high amount of ROS”.
In the case of `[Cl][Ru][Cl].c1ccc(-c2ccccn2)nc1.c1ccc(-c2ccccn2)nc1.c1ccc(-c2ccccn2)nc1` [[Ru(bpy)3]Cl2], the “ΦΔ ref, singlet oxygen quantum yield of the reference” value [2] is listed as 73%.
With Ac-MRGDH-NH2 the λem was 700 nm, the λmax [3] was 465 nm and the relative emission intensity compared to Ru-p(HH) [4] was 2%.
In the case of Ac-MRGDM-NH2, the λem was 700 nm, the λmax [3] was 400 nm and the relative emission intensity compared to Ru-p(HH) [4] was 0.2%.
With `N.N.[Cl][Pt][Cl]` [cisplatin] the “intracellular ROS production, normoxia” value (U87MG cells [1]) was “barely showed any ROS formation”.
Ac-HRGDH-NH2 gave a λem of 658 nm and a λmax [3] of 500 nm.
For [Ru(Ph2phen)2Cl2], the “PI, photoindex EC50,dark/EC50,light” value (U87MG cells [5]) was 7.2, the pEC50 (U87MG cells [5]; 520 nm, 10.9 mW cm–2, 13.1 J cm–2, 20 min, DLI 24 h, n = 3, read-out: EC50, green light) was 6.70 and the pEC50 (U87MG cells [5]; light dose 0, 24 h treatment, no wash, n = 3, read-out: EC50, dark) was 5.84. The “intracellular ROS production, normoxia” value (U87MG cells [1]) was “able to generate ROS in cells”.
